PubChem BioAssay AID1918948 (Molecular Pharmacology Branch, DTP, NCI, 2023)

Test system: K-562 leukemia growth, % test/control
Test: Anticancer human tumor K-562 cell line growth inhibition;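 further: spheroids exposed to compounds for 7 days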;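 on viability, T/C: 100% = DMSO vehicle wells and lower values mean fewer viable cells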
Conditions: spheroids with HUVEC and MSC; for IC50: curve of first compound; for viability, T/C: stronger effect = lower value; active means viability on the fitted dose curve at most 10% of control; inactive means the rest
In short: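 Drug combinations with the LSD1 inhibitor iadademstat tested on tumor cells co-cultured as spheroids with endothelial cells and mesenchymal stem cells. Concentrations descended in half-log increments from clinical Cmax or 10 microM.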

[1] = second compound 0.1 µM, first compound 0.000949 µM
[2] = second compound 0.1 µM, first compound 0.003 µM
[3] = second compound 0.1 µM, first compound 0.00949 µM
[4] = second compound 0.1 µM, first compound 0.03 µM
[5] = second compound 0.1 µM, first compound 0.0949 µM
[6] = second compound 0.1 µM, first compound 0.3 µM
[7] = second compound 0.316 µM, first compound 0.000949 µM
[8] = second compound 0.316 µM, first compound 0.003 µM
[9] = second compound 0.316 µM, first compound 0.00949 µM
[10] = second compound 0.316 µM, first compound 0.03 µM
[11] = second compound 0.316 µM, first compound 0.0949 µM
[12] = second compound 0.316 µM, first compound 0.3 µM
[13] = second compound 1 µM, first compound 0.000949 µM
[14] = second compound 1 µM, first compound 0.003 µM
[15] = second compound 1 µM, first compound 0.00949 µM
[16] = second compound 1 µM, first compound 0.03 µM
[17] = second compound 1 µM, first compound 0.0949 µM
[18] = second compound 1 µM, first compound 0.3 µM
[19] = second compound 3.16 µM, first compound 0.000949 µM
[20] = second compound 3.16 µM, first compound 0.003 µM
[21] = second compound 3.16 µM, first compound 0.00949 µM
[22] = second compound 3.16 µM, first compound 0.03 µM
[23] = second compound 3.16 µM, first compound 0.0949 µM
[24] = second compound 3.16 µM, first compound 0.3 µM
[25] = second compound 10 µM, first compound 0.000949 µM
[26] = second compound 10 µM, first compound 0.003 µM
[27] = second compound 10 µM, first compound 0.00949 µM
[28] = second compound 10 µM, first compound 0.03 µM
[29] = second compound 10 µM, first compound 0.0949 µM
[30] = second compound 10 µM, first compound 0.3 µM

CCc1c2c(nc3ccc(O)cc13)-c1cc3c(c(=O)n1C2)COC(=O)[C@]3(O)CC + NC1CCC(NC2CC2c2ccccc2)CC1
< 0.949 nM: IC50 (second compound 0.1 µM) | IC50 (second compound 0.316 µM) | IC50 (second compound 1 µM) | IC50 (second compound 3.16 µM) | IC50 (second compound 10 µM)
active: viability, T/C [1] 5.18% | viability, T/C [2] 3.15% | viability, T/C [3] 1.66% | viability, T/C [4] 1.09% | viability, T/C [5] 0.45% | viability, T/C [6] 0.5% | viability, T/C [7] 5.49% | viability, T/C [8] 3.06% | viability, T/C [9] 1.72% | viability, T/C [10] 2.09% | viability, T/C [11] 0.56% | viability, T/C [12] 0.51% | viability, T/C [13] 5.31% | viability, T/C [14] 3.05% | viability, T/C [15] 1.8% | viability, T/C [16] 1.24% | viability, T/C [17] 1.88% | viability, T/C [18] 0.5% | viability, T/C [19] 5.35% | viability, T/C [20] 3.03% | viability, T/C [21] 1.7% | viability, T/C [22] 1.4% | viability, T/C [23] 0.45% | viability, T/C [24] 0.47% | viability, T/C [25] 4.28% | viability, T/C [26] 2.29% | viability, T/C [27] 1.7% | viability, T/C [28] 1.31% | viability, T/C [29] 0.58% | viability, T/C [30] 2.36%

Nc1ccn(C2OC(CO)C(O)C2(F)F)c(=O)n1 (stereo not given) + NC1CCC(NC2CC2c2ccccc2)CC1
active: viability, T/C [2] 6.98% | viability, T/C [3] 5.69% | viability, T/C [4] 5.94% | viability, T/C [5] 6.11% | viability, T/C [6] 5.96% | viability, T/C [8] 7.37% | viability, T/C [9] 5.62% | viability, T/C [10] 5.72% | viability, T/C [11] 7.48% | viability, T/C [12] 6.94% | viability, T/C [14] 6.4% | viability, T/C [15] 5.72% | viability, T/C [16] 6.07% | viability, T/C [17] 6% | viability, T/C [18] 6% | viability, T/C [20] 6.36% | viability, T/C [21] 6.71% | viability, T/C [22] 5.11% | viability, T/C [23] 5.57% | viability, T/C [24] 5.77% | viability, T/C [26] 5.54% | viability, T/C [27] 5.5% | viability, T/C [28] 4.88% | viability, T/C [29] 5.09% | viability, T/C [30] 5.72%
inactive: viability, T/C [1] 24% | viability, T/C [7] 25.4% | viability, T/C [13] 27.7% | viability, T/C [19] 20.3% | viability, T/C [25] 12.7%
< 0.949 nM: IC50 (second compound 0.1 µM) | IC50 (second compound 0.316 µM) | IC50 (second compound 1 µM) | IC50 (second compound 3.16 µM) | IC50 (second compound 10 µM)

O=C(c1cc(Cc2n[nH]c(=O)c3ccccc23)ccc1F)N1CCN(C(=O)C2CC2)CC1 + NC1CCC(NC2CC2c2ccccc2)CC1
> 10000 nM: IC50 (second compound 0.1 µM) | IC50 (second compound 0.316 µM) | IC50 (second compound 1 µM) | IC50 (second compound 3.16 µM) | IC50 (second compound 10 µM)
inactive: viability, T/C (second compound 0.1 µM, first compound 0.0316 µM) 98.2% | viability, T/C (second compound 0.1 µM, first compound 0.1 µM) 97.4% | viability, T/C (second compound 0.1 µM, first compound 0.316 µM) 96% | viability, T/C (second compound 0.1 µM, first compound 1 µM) 94.2% | viability, T/C (second compound 0.1 µM, first compound 3.16 µM) 82.7% | viability, T/C (second compound 0.1 µM, first compound 10 µM) 51.2% | viability, T/C (second compound 0.316 µM, first compound 0.0316 µM) 101% | viability, T/C (second compound 0.316 µM, first compound 0.1 µM) 99.6% | viability, T/C (second compound 0.316 µM, first compound 0.316 µM) 98.6% | viability, T/C (second compound 0.316 µM, first compound 1 µM) 95% | viability, T/C (second compound 0.316 µM, first compound 3.16 µM) 83.2% | viability, T/C (second compound 0.316 µM, first compound 10 µM) 51.2% | viability, T/C (second compound 1 µM, first compound 0.0316 µM) 99.4% | viability, T/C (second compound 1 µM, first compound 0.1 µM) 100% | viability, T/C (second compound 1 µM, first compound 0.316 µM) 98.3% | viability, T/C (second compound 1 µM, first compound 1 µM) 94.4% | viability, T/C (second compound 1 µM, first compound 3.16 µM) 85.6% | viability, T/C (second compound 1 µM, first compound 10 µM) 53.1% | viability, T/C (second compound 3.16 µM, first compound 0.0316 µM) 102% | viability, T/C (second compound 3.16 µM, first compound 0.1 µM) 101% | viability, T/C (second compound 3.16 µM, first compound 0.316 µM) 98.2% | viability, T/C (second compound 3.16 µM, first compound 1 µM) 95% | viability, T/C (second compound 3.16 µM, first compound 3.16 µM) 84.8% | viability, T/C (second compound 3.16 µM, first compound 10 µM) 54.4% | viability, T/C (second compound 10 µM, first compound 0.0316 µM) 95.4% | viability, T/C (second compound 10 µM, first compound 0.1 µM) 98.8% | viability, T/C (second compound 10 µM, first compound 0.316 µM) 98.5% | viability, T/C (second compound 10 µM, first compound 1 µM) 92.2% | viability, T/C (second compound 10 µM, first compound 3.16 µM) 81% | viability, T/C (second compound 10 µM, first compound 10 µM) 53.3%
